How the values were obtained:
Type in all cases: cell-based
Set-up in all cases: unit not given here
[1] = tested on: Chlorella protothecoides; experiment: Effect of hormone concentrations on growth rate, photoheterotrophic conditions, 48 hours; settings: control 1.05 ± 0.020
[2] = tested on: Chlorella protothecoides; experiment: Effect of hormone concentrations on growth rate, heterotrophic conditions, 48 hours; settings: control 1.54 ± 0.080
[3] = tested on: Scenedesmus obliquus; experiment: as above; settings: control 0.35 ± 0.023
[4] = tested on: Scenedesmus obliquus; experiment: Effect of hormone concentrations on growth rate, photoheterotrophic conditions, 48 hours; settings: control 0.41 ± 0.042

| Structure (SMILES) | growth rate ([1]; hormone 0.01 ng) | growth rate ([1]; hormone 0.1 ng) | growth rate ([1]; hormone 1 ng) | growth rate ([1]; hormone 10 ng) | growth rate ([1]; hormone 100 ng) | growth rate ([2]; hormone 0.01 ng) | growth rate ([2]; hormone 0.1 ng) | growth rate ([2]; hormone 1 ng) | growth rate ([2]; hormone 10 ng) | growth rate ([2]; hormone 100 ng) | growth rate ([3]; hormone 0.01 ng) | growth rate ([3]; hormone 0.1 ng) | growth rate ([3]; hormone 1 ng) | growth rate ([3]; hormone 10 ng) | growth rate ([3]; hormone 100 ng) | growth rate ([4]; hormone 0.01 ng) | growth rate ([4]; hormone 0.1 ng) | growth rate ([4]; hormone 1 ng) | growth rate ([4]; hormone 10 ng) | growth rate ([4]; hormone 100 ng) |
| --- | --- | --- | --- | --- | --- | --- | --- | --- | --- | --- | --- | --- | --- | --- | --- | --- | --- | --- | --- | --- |
| O=C(O)Cc1c[nH]c2ccccc12 [Indole-3-acetic acid, indole-3-acetic acid] | 1.06 ± 0.030 | 1.05 ± 0.019 | 0.97 ± 0.020 | 1.13 ± 0.019 | 1.02 ± 0.061 | 1.62 ± 0.133 | 1.61 ± 0.072 | 1.49 ± 0.122 | 1.60 ± 0.099 | 1.60 ± 0.076 | 0.23 ± 0.020 | 0.36 ± 0.127 | 0.42 ± 0.081 | 0.47 ± 0.020 | 0.41 ± 0.053 | 0.42 ± 0.020 | 0.47 ± 0.061 | 0.49 ± 0.030 | 0.49 ± 0.023 | 0.62 ± 0.092 |
| O=C(O)Cc1cccc2ccccc12 [1-Naphthaleneacetic acid, 1-naphthaleneacetic acid] | 1.00 ± 0.058 | 1.02 ± 0.050 | 1.05 ± 0.035 | 1.07 ± 0.028 | 1.16 ± 0.152 | 1.66 ± 0.140 | 1.54 ± 0.081 | 1.62 ± 0.136 | 1.57 ± 0.028 | 1.62 ± 0.064 | 0.26 ± 0.042 | 0.28 ± 0.011 | 0.33 ± 0.020 | 0.28 ± 0.099 | 0.39 ± 0.053 | 0.84 ± 0.087 | 0.85 ± 0.042 | 0.81 ± 0.042 | 0.80 ± 0.141 | 0.73 ± 0.046 |
| O=C(O)COc1ccc(Cl)cc1Cl [2,4-Dichlorophenoxyacetic, 2,4-dichlorophenoxyacetic acid] | 1.09 ± 0.035 | 1.08 ± 0.133 | 1.01 ± 0.035 | 1.08 ± 0.030 | 1.03 ± 0.069 | 1.40 ± 0.061 | 1.53 ± 0.069 | 1.43 ± 0.069 | 1.31 ± 0.087 | 1.50 ± 0.081 | 0.28 ± 0.030 | 0.23 ± 0.040 | 0.31 ± 0.020 | 0.24 ± 0.081 | 0.23 ± 0.040 | 0.42 ± 0.035 | 0.44 ± 0.000 | 0.47 ± 0.023 | 0.44 ± 0.028 | 0.33 ± 0.042 |
| c1coc(CNc2ncnc3[nH]cnc23)c1 [Kinetin, kinetin] | 1.08 ± 0.023 | 1.10 ± 0.042 | 1.02 ± 0.011 | 1.18 ± 0.050 | 1.19 ± 0.035 | 1.60 ± 0.050 | 1.50 ± 0.050 | 1.44 ± 0.110 | 1.60 ± 0.070 | 1.58 ± 0.061 | 0.28 ± 0.061 | 0.26 ± 0.076 | 0.36 ± 0.042 | 0.31 ± 0.028 | 0.28 ± 0.076 | 0.57 ± 0.133 | 0.73 ± 0.042 | 0.92 ± 0.113 | 0.37 ± 0.070 | 0.36 ± 0.060 |
| C=C1C[C@]23C[C@@]1(O)CC[C@H]2[C@@]12C=C[C@H](O)[C@@](C)(C(=O)O1)[C@H]2[C@@H]3C(=O)O [Gibberellic acid] | 1.06 ± 0.011 | 1.02 ± 0.046 | 1.00 ± 0.030 | 1.09 ± 0.122 | 1.10 ± 0.070 | 1.52 ± 0.201 | 1.52 ± 0.151 | 1.46 ± 0.090 | 1.52 ± 0.099 | 1.46 ± 0.050 | 0.44 ± 0.083 | 0.50 ± 0.046 | 0.43 ± 0.020 | 0.36 ± 0.050 | 0.42 ± 0.064 | 0.59 ± 0.064 | 0.47 ± 0.081 | 0.56 ± 0.087 | 0.56 ± 0.141 | 0.51 ± 0.110 |
| c1ccc(CNc2ncnc3nc[nH]c23)cc1 [6-Benzylaminopurine, 6-benzylaminopurine] | 1.00 ± 0.030 | 1.12 ± 0.011 | 1.07 ± 0.035 | 1.04 ± 0.083 | 1.08 ± 0.023 | 1.48 ± 0.121 | 1.54 ± 0.081 | 1.50 ± 0.012 | 1.52 ± 0.117 | 1.46 ± 0.150 | 0.28 ± 0.081 | 0.32 ± 0.061 | 0.39 ± 0.092 | 0.36 ± 0.092 | 0.33 ± 0.104 | 0.46 ± 0.056 | 0.37 ± 0.099 | 0.47 ± 0.011 | 0.47 ± 0.064 | 0.52 ± 0.060 |

From US20210307271A1, “OPTIMIZATION OF ALGAL PRODUCT PRODUCTION THROUGH UNCOUPLING CELL PROLIFERATION AND ALGAL PRODUCT PRODUCTION” (priority 2008, published 2021)
